Bridge positions count the residues as written; N and C are the ends. Square brackets hold non-standard residues; d marks the D form. Peptide text beside a SMILES is read from it. R8 = C=CCCCCCC[C@@](C)(N)C(=O)O; S5 = C=CCCC[C@](C)(N)C(=O)O; Nle = CCCC[C@H](N)C(=O)O
Key:
[1] = test system: P. aeruginosa; type: cell-based, Pseudomonas aeruginosa
Method in brief: (§1)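 Read-out is visible growth: the MIC is the lowest peptide concentration showing none after 20-24 hours at 37° C. Bacteria in refined (anion-exchanged) Mueller-Hinton broth were seeded at a final 5×10^5 CFU/ml onto water-based peptide serial dilutions.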

[2] = test system: human red blood cells; type: cell-based; details: red cells of human, 1 h, 25
Method in brief: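 Hemolysis expressed as absorbance of released hemoglobin (570 nm) normalized between untreated and 1% Triton-X100 controls, with MHC taken as peptide concentration giving under 1% release. Peptide dilutions were exposed for 1 h at 37° C to a 1% (v/v) suspension of washed human red cells in PBS.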

[3] = test system: B. cereus; type: cell-based, Bacillus cereus
Method in brief: as §1

[4] = test system: E. coli; type: cell-based, Escherichia coli
Method in brief: as §1

[5] = test system: S. aureus; type: cell-based, Staphylococcus aureus
Method in brief: as §1

| SMILES | MIC P. aeruginosa [1] [µg/mL] | MIC B. cereus [3] [µg/mL] | MIC E. coli [4] [µg/mL] | MIC S. aureus [5] [µg/mL] | % Hemolysis at 25 μg/ml [2] [%] |
| --- | --- | --- | --- | --- | --- |
| CCCC[C@H](NC(=O)[C@]1(C)CCCC=CCCC[C@](C)(NC(=O)[C@H](C)NC(=O)[C@H](CCCCN)NC(=O)CNC(=O)[C@H](Cc2ccccc2)NC(=O)[C@H](CCCCN)NC(=O)[C@H](CCCCN)NC(=O)[C@H](C)NC(=O)[C@H](CO)NC(=O)[C@H](Cc2c[nH]cn2)NC(=O)[C@H](CC(C)C)NC(=O)[C@H](Cc2ccccc2)NC(=O)[C@H](CCCCN)NC(=O)CNC(=O)[C@@H](NC(=O)CN)[C@@H](C)CC)C(=O)N[C@@H](CCC(=O)O)C(=O)NCC(=O)N[C@@H](CCC(=O)O)C(=O)N1)C(=O)N[C@@H](CC(N)=O)C(=O)N[C@@H](CO)C(N)=O [Mag(i + 4)15(V17E), GIGKFLHSAKKFGKAXEGEXBNS] (H-GIGKFLHSAKKFGKA[S5]EGE[S5][Nle]NS-NH2; staple 16-20) | >50 | >50 | 50 | >50 | 0.5 |
| CCCC[C@H](NC(=O)[C@]1(C)CCCC=CCCC[C@](C)(NC(=O)[C@H](C)NC(=O)[C@H](CCCCN)NC(=O)CNC(=O)[C@H](Cc2ccccc2)NC(=O)[C@H](CCCCN)NC(=O)[C@H](CCCCN)NC(=O)[C@H](C)NC(=O)[C@H](CO)NC(=O)[C@H](Cc2c[nH]cn2)NC(=O)[C@H](CC(C)C)NC(=O)[C@H](Cc2ccccc2)NC(=O)[C@H](CCCCN)NC(=O)CNC(=O)[C@@H](NC(=O)CN)[C@@H](C)CC)C(=O)N[C@@H](CCCCN)C(=O)NCC(=O)N[C@@H](CCC(=O)O)C(=O)N1)C(=O)N[C@@H](CC(N)=O)C(=O)N[C@@H](CO)C(N)=O [Mag(i + 4)15(V17K), GIGKFLHSAKKFGKAXKGEXBNS] (H-GIGKFLHSAKKFGKA[S5]KGE[S5][Nle]NS-NH2; staple 16-20) | 12.5 | 50 | 3.1 | >50 | 2.2 |
| CCCC[C@H](NC(=O)[C@]1(C)CCCC=CCCC[C@](C)(NC(=O)[C@H](C)NC(=O)[C@H](CCCCN)NC(=O)CNC(=O)[C@H](Cc2ccccc2)NC(=O)[C@H](CCCCN)NC(=O)[C@H](CCCCN)NC(=O)[C@H](C)NC(=O)[C@H](CO)NC(=O)[C@H](Cc2c[nH]cn2)NC(=O)[C@H](CC(C)C)NC(=O)[C@H](Cc2ccccc2)NC(=O)[C@H](CCCCN)NC(=O)CNC(=O)[C@@H](NC(=O)CN)[C@@H](C)CC)C(=O)N[C@@H](C(C)C)C(=O)NCC(=O)N[C@@H](CCC(=O)O)C(=O)N1)C(=O)N[C@@H](CC(N)=O)C(=O)N[C@@H](CO)C(N)=O [Mag(i + 4)15] (H-GIGKFLHSAKKFGKA[S5]VGE[S5][Nle]NS-NH2; staple 16-20) | 6.2 | 6.2 | 1.6 | 12.5 | 11.9 |
| CC[C@H](C)[C@H](NC(=O)CN)C(=O)NCC(=O)N[C@@H](CCCCN)C(=O)N[C@@H](Cc1ccccc1)C(=O)N[C@@H](CC(C)C)C(=O)N[C@@H](Cc1c[nH]cn1)C(=O)N[C@@H](CO)C(=O)N[C@@H](C)C(=O)N[C@@H](CCCCN)C(=O)N[C@@H](CCCCN)C(=O)N[C@@H](Cc1ccccc1)C(=O)NCC(=O)N[C@@H](CCCCN)C(=O)N[C@@H](C)C(=O)N[C@@H](Cc1ccccc1)C(=O)N[C@@]1(C)CCCC=CCCC[C@@](C)(C(=O)N[C@@H](CC(N)=O)C(=O)N[C@@H](CO)C(N)=O)NC(=O)[C@H]([C@@H](C)CC)NC(=O)[C@H](CCC(=O)O)NC(=O)CNC1=O [Mag(i + 4)16, GIGKFLHSAKKFGKAFXGEIXNS] (H-GIGKFLHSAKKFGKAF[S5]GEI[S5]NS-NH2; staple 17-21) | 6.2 | 12.5 | 3.1 | 50 | 7.8 |

More lines, main results first:

| MIC P. aeruginosa [1] [µg/mL] | MIC B. cereus [3] [µg/mL] | MIC E. coli [4] [µg/mL] | MIC S. aureus [5] [µg/mL] | SMILES | % Hemolysis at 25 μg/ml [2] [%] |
| --- | --- | --- | --- | --- | --- |
| 6.2 | 1.6 | 1.6 | 3.1 | CCCC[C@@H]1NC(=O)[C@H]([C@@H](C)CC)NC(=O)[C@H](CCC(=O)O)NC(=O)[C@@](C)(NC(=O)[C@@H](NC(=O)[C@H](Cc2ccccc2)NC(=O)[C@H](C)NC(=O)[C@H](CCCCN)NC(=O)CNC(=O)[C@H](Cc2ccccc2)NC(=O)[C@H](CCCCN)NC(=O)[C@H](CCCCN)NC(=O)[C@H](C)NC(=O)[C@H](CO)NC(=O)[C@H](Cc2c[nH]cn2)NC(=O)[C@H](CC(C)C)NC(=O)[C@H](Cc2ccccc2)NC(=O)[C@H](CCCCN)NC(=O)CNC(=O)[C@@H](NC(=O)CN)[C@@H](C)CC)C(C)C)CCCC=CCCC[C@@](C)(C(=O)N[C@@H](CO)C(N)=O)NC1=O [Mag(i + 4)17] (H-GIGKFLHSAKKFGKAFV[S5]EI[Nle][S5]S-NH2; staple 18-22) | 56.0 |
| 3.1 | 3.1 | 1.6 | 1.6 | CCCC[C@@H]1NC(=O)[C@H]([C@@H](C)CC)NC(=O)[C@@](C)(NC(=O)CNC(=O)[C@@H](NC(=O)[C@H](Cc2ccccc2)NC(=O)[C@H](C)NC(=O)[C@H](CCCCN)NC(=O)CNC(=O)[C@H](Cc2ccccc2)NC(=O)[C@H](CCCCN)NC(=O)[C@H](CCCCN)NC(=O)[C@H](C)NC(=O)[C@H](CO)NC(=O)[C@H](Cc2c[nH]cn2)NC(=O)[C@H](CC(C)C)NC(=O)[C@H](Cc2ccccc2)NC(=O)[C@H](CCCCN)NC(=O)CNC(=O)[C@@H](NC(=O)CN)[C@@H](C)CC)C(C)C)CCCC=CCCC[C@@](C)(C(N)=O)NC(=O)[C@H](CC(N)=O)NC1=O [Mag(i + 4)18, GIGKFLHSAKKFGKAFVGXIBNX] (H-GIGKFLHSAKKFGKAFVG[S5]I[Nle]N[S5]-NH2; staple 19-23) | 96.5 |
| 3.1 | 3.1 | 3.1 | 12.5 | CCCC[C@H](NC(=O)[C@@H](NC(=O)[C@H](CCC(=O)O)NC(=O)CNC(=O)[C@@H](NC(=O)[C@H](Cc1ccccc1)NC(=O)[C@H](C)NC(=O)[C@H](CCCCN)NC(=O)CNC(=O)[C@H](Cc1ccccc1)NC(=O)[C@H](CCCCN)NC(=O)[C@H](CCCCN)NC(=O)[C@]1(C)CCCC=CCCCCCC[C@@](C)(NC(=O)CN)C(=O)NCC(=O)N[C@@H](CCCCN)C(=O)N[C@@H](Cc2ccccc2)C(=O)N[C@@H](CC(C)C)C(=O)N[C@@H](Cc2c[nH]cn2)C(=O)N[C@@H](CO)C(=O)N1)C(C)C)[C@@H](C)CC)C(=O)N[C@@H](CC(N)=O)C(=O)N[C@@H](CO)C(N)=O [Mag(i + 7)1] (H-G[R8]GKFLHS[S5]KKFGKAFVGEI[Nle]NS-NH2; staple 2-9 (inferred); N-terminus and C-terminus assumed) | 49.9 |
| 12.5 | 6.2 | 3.1 | 12.5 | CCCC[C@H](NC(=O)[C@@H](NC(=O)[C@H](CCC(=O)O)NC(=O)CNC(=O)[C@@H](NC(=O)[C@H](Cc1ccccc1)NC(=O)[C@H](C)NC(=O)[C@H](CCCCN)NC(=O)CNC(=O)[C@H](Cc1ccccc1)NC(=O)[C@H](CCCCN)NC(=O)[C@]1(C)CCCC=CCCCCCC[C@@](C)(NC(=O)[C@@H](NC(=O)CN)[C@@H](C)CC)C(=O)N[C@@H](CCCCN)C(=O)N[C@@H](Cc2ccccc2)C(=O)N[C@@H](CC(C)C)C(=O)N[C@@H](Cc2c[nH]cn2)C(=O)N[C@@H](CO)C(=O)N[C@@H](C)C(=O)N1)C(C)C)[C@@H](C)CC)C(=O)N[C@@H](CC(N)=O)C(=O)N[C@@H](CO)C(N)=O [Mag(i + 7)2] (H-GI[R8]KFLHSA[S5]KFGKAFVGEI[Nle]NS-NH2; staple 3-10 (inferred); N-terminus and C-terminus assumed) | 69.3 |
| 25 | 12.5 | 6.2 | 12.5 | CCCC[C@H](NC(=O)[C@@H](NC(=O)[C@H](CCC(=O)O)NC(=O)CNC(=O)[C@@H](NC(=O)[C@H](Cc1ccccc1)NC(=O)[C@H](C)NC(=O)[C@H](CCCCN)NC(=O)CNC(=O)[C@H](Cc1ccccc1)NC(=O)[C@]1(C)CCCC=CCCCCCC[C@@](C)(NC(=O)CNC(=O)[C@@H](NC(=O)CN)[C@@H](C)CC)C(=O)N[C@@H](Cc2ccccc2)C(=O)N[C@@H](CC(C)C)C(=O)N[C@@H](Cc2c[nH]cn2)C(=O)N[C@@H](CO)C(=O)N[C@@H](C)C(=O)N[C@@H](CCCCN)C(=O)N1)C(C)C)[C@@H](C)CC)C(=O)N[C@@H](CC(N)=O)C(=O)N[C@@H](CO)C(N)=O [Mag(i + 7)3] (H-GIG[R8]FLHSAK[S5]FGKAFVGEI[Nle]NS-NH2; staple 4-11 (inferred); N-terminus and C-terminus assumed) | 52.5 |
| 3.1 | 6.2 | 1.6 | 25 | CCCC[C@H](NC(=O)[C@@H](NC(=O)[C@H](CCC(=O)O)NC(=O)CNC(=O)[C@@H](NC(=O)[C@H](Cc1ccccc1)NC(=O)[C@H](C)NC(=O)[C@H](CCCCN)NC(=O)CNC(=O)[C@]1(C)CCCC=CCCCCCC[C@@](C)(NC(=O)[C@H](CCCCN)NC(=O)CNC(=O)[C@@H](NC(=O)CN)[C@@H](C)CC)C(=O)N[C@@H](CC(C)C)C(=O)N[C@@H](Cc2c[nH]cn2)C(=O)N[C@@H](CO)C(=O)N[C@@H](C)C(=O)N[C@@H](CCCCN)C(=O)N[C@@H](CCCCN)C(=O)N1)C(C)C)[C@@H](C)CC)C(=O)N[C@@H](CC(N)=O)C(=O)N[C@@H](CO)C(N)=O [Mag(i + 7)4] (H-GIGK[R8]LHSAKK[S5]GKAFVGEI[Nle]NS-NH2; staple 5-12 (inferred); N-terminus and C-terminus assumed) | 42.6 |

— patent publication US20200231638A1, “STABILIZED ANTI-MICROBIAL PEPTIDES” (priority 2015, published 2020)
